Columns and labels:
[1] = tested on: Klebsiella pneumoniae expressing VIM-1 (IHMA599644); type: cell-based; conditions: with imipenem 1 μg/ml; 95% inhibition of bacterial growth
Method in brief: (§1)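 Growth read by absorbance after 22–24 h at 35 °C in CAMHB, with test compound alone or combined with 1 μg/ml imipenem. Inocula came from overnight 35 °C blood-agar colonies, set to a defined OD600 and diluted 1:100. Value is the inhibitor concentration giving synergy.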

[2] = tested on: Serratia marcescens expressing IMP-1 (CL5741); type: cell-based; conditions: with imipenem 1 μg/ml; 95% inhibition of bacterial growth
Method in brief: as §1

[3] = tested on: Pseudomonas aeruginosa PAO1 MB9798 (efflux+, IMP-1); conditions: ratio MITC95 PA 9798/MITC95 PA 9799; imipenem at 2 μg/mL
Method in brief: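 Isogenic PAO1 pair (efflux+ MB9798, efflux− MB9799, both IMP-1) tested by microbroth MIC with fixed imipenem and/or ceftazidime, usually at CLSI breakpoint, plus fixed class A/C inhibitor against AmpC. MBL inhibitor titrated; concentration restoring susceptibility recorded and fold difference between strains taken as efflux extent.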

[4] = tested on: Escherichia coli expressing NDM-1 (CLB30005, CLB30016); type: cell-based; conditions: with imipenem 1 μg/ml; 95% inhibition of bacterial growth
Method in brief: as §1

| SMILES | Klebsiella pneumoniae (VIM-1) MITC95 [1] | Serratia marcescens (IMP-1) MITC95 [2] | Efflux ratio [3] | Escherichia coli (NDM-1) MITC95 [4] |
| --- | --- | --- | --- | --- |
| NC[C@H](O)CNS(=O)(=O)c1ccc(-c2ccc3nccn3c2)c(-c2nn[nH]n2)c1S(N)(=O)=O [Example 418, (S)-N^1-(3-amino-2-hydroxypropyl)-4-(imidazo[1,2-a]pyridin-6-yl)-3-(2H-tetrazol-5-yl)benzene-1,2-disulfonamide] | 1.563 µM | 0.7813 µM |  |  |
| C[C@@H](CN)NS(=O)(=O)c1ccc(-c2cccc3sc(N)nc23)c(-c2nn[nH]n2)c1S(N)(=O)=O [Example 389, 4-(2-amino-1,3-benzothiazol-4-yl)-N^1-[(1S)-2-amino-1-methylethyl]-3-(2H-tetrazol-S-yl)benzene-1,2-disulfonamide] | 3.125 µM | 3.125 µM |  |  |
| NC[C@H](CO)NS(=O)(=O)c1ccc(-c2cccc3[nH]nnc23)c(-c2nn[nH]n2)c1S(N)(=O)=O [Example 407, (R)-N^1-(1-amino-3-hydroxypropan-2-yl)-4-(1H-benzo[d][1,2,3]triazol-4-yl)-3-(2H-tetrazol-5-yl)benzene-1,2-disulfonamide] | 3.125 µM | 1.563 µM |  |  |
| Nc1ncc(-c2cccc(-c3ccc(S(=O)(=O)N[C@@H]4CCNC4)c(S(N)(=O)=O)c3-c3nnn[nH]3)n2)[nH]1 [Example 439, (R)-4-(6-(2-Amino-1H-imidazol-5-yl)pyridin-2-yl)-N^1-(pyrrolidin-3-yl)-3-(1H-tetrazol-5-yl)benzene-1,2-disulfonamide] | 1.563 µM | 1.563 µM |  |  |
| Nc1ccc(-c2ccc(S(=O)(=O)N[C@@H]3CCCNC3)c(S(N)(=O)=O)c2-c2nn[nH]n2)cn1 [Example 490, (R)-4-(6-aminopyridin-3-yl)-N1-(piperidin-3-yl)-3-(2H-tetrazol-5-yl)benzene-1,2-disulfonamide] | 3.125 µM | 1.563 µM |  |  |
| NCCNCCNS(=O)(=O)c1ccc(-c2ccc(N)nc2)c(-c2nn[nH]n2)c1S(N)(=O)=O [Example 482, N1-(2-(−2-amineoethylamino)ethyl)-4-(6-aminopyridin-3-yl)-3-(2H-tetrazol-5-yl)benzene-1,2-disulfonamide] | 1.563 µM | 0.7813 µM |  |  |
| C[C@@H](CN)NS(=O)(=O)c1ccc(-c2ccc(N)nc2)c(-c2nn[nH]n2)c1S(N)(=O)=O [Example 394, (S)-N^1-(1-aminopropan-2-yl)-4-(6-aminopyridin-3-yl)-3-(2H-tetrazol-5-yl)benzene-1,2-disulfonamide] | 3.125 µM | 1.563 µM |  |  |
| NCC(CN)NS(=O)(=O)c1ccc(-c2cccc3ccc(N)nc23)c(-c2nn[nH]n2)c1S(N)(=O)=O [Example 430, 4-(2-aminoquinolin-8-yl)-N1-(1,3-diaminopropan-2-yl)-3-(2H-tetrazol-5-yl)benzene-1,2-disulfonamide] | 1.563 µM | 1.563 µM |  |  |
| NCCNS(=O)(=O)c1ccc(-c2cnc3cc[nH]c3c2)c(-c2nn[nH]n2)c1S(N)(=O)=O [Example 359, N1-(2-aminoethyl)-4-(1H-pyrrolo[3,2-b]pyridin-6-yl)-3-(2H-tetrazol-5-yl)benzene-1,2-disulfonamide] | 1.563 µM |  | 2.00 |  |
| NC(=O)c1csc(Nc2cccc(-c3ccc(S(=O)(=O)N[C@@H]4CCNC4)c(S(N)(=O)=O)c3-c3nn[nH]n3)c2)n1 [Example 471, (R)-2-((4′-(N-(pyrrolidin-3-yl)sulfamoyl)-3′-sulfamoyl-2′-(2H-tetrazol-5-yl)-[1,1′-biphenyl]-3-yl)amino)thiazole-4-carboxamide] | 3.125 µM |  |  |  |
| Nc1nc(-c2cccc(-c3ccc(S(=O)(=O)N[C@H]4CNC[C@H]4N)c(S(N)(=O)=O)c3-c3nn[nH]n3)c2)c[nH]1 [Example 327, 3′-(2-amino-1H-imidazol-4-yl)-N4-((3S,4R)-4-aminopyrrolidin-3-yl)-2-(2H-tetrazol-5-yl)[1,1′-biphenyl]-3,4-disulfonamide] | 1.563 µM |  | 2.00 |  |
| C[C@H](N)CNS(=O)(=O)c1ccc(-c2ccnc(N)c2)c(-c2nn[nH]n2)c1S(N)(=O)=O [Example 421, (S)-N^1-(2-aminopropyl)-4-(2-aminopyridin-4-yl)-3-(2H-tetrazol-5-yl)benzene-1,2-disulfonamide] | 1.563 µM | 0.7813 µM |  |  |
| NC[C@H](N)CNS(=O)(=O)c1ccc(-c2ccc(N)nc2)c(-c2nn[nH]n2)c1S(N)(=O)=O [Example 415, (S)-4-(6-aminopyridin-3-yl)-N^1-(2,3-diaminopropyl)-3-(2H-tetrazol-5-yl)benzene-1,2-disulfonamide] | 3.125 µM |  |  |  |
| Cc1cc(-c2ccc(S(=O)(=O)NC[C@H](O)CN)c(S(N)(=O)=O)c2-c2nn[nH]n2)cnc1N [Example 477, (R)—N1-(3-amino-2-hydroxypropyl)-4-(6-amino-5-methylpyridin-3-yl)-3-(2H-tetrazol-5-yl)benzene-1,2-disulfonamide] | 1.563 µM | 0.7813 µM |  |  |
| NCCNS(=O)(=O)c1ccc(-c2ccccc2NC(=O)CN)c(-c2nn[nH]n2)c1S(N)(=O)=O [Example 452, 2-Amino-N-(4′-(N-(2-aminoethyl)sulfamoyl)-3′-sulfamoyl-2′-(2H-tetrazol-5-yl)-[1,1′-biphenyl]-2-yl)acetamide] | 6.25 µM |  |  |  |
| NCC(CN)NS(=O)(=O)c1ccc(-c2ccnc(N)c2)c(-c2nn[nH]n2)c1S(N)(=O)=O [Example 405, 4-(2-aminopyridin-4-yl)-N^1-(1,3-diaminopropan-2-yl)-3-(2H-tetrazol-5-yl)benzene-1,2-disulfonamide] | 25 µM |  |  |  |
| NCC(CN)NS(=O)(=O)c1ccc(-c2ccc(N)nc2)c(-c2nn[nH]n2)c1S(N)(=O)=O [Example 404, 4-(6-aminopyridin-3-yl)-N^1-(1,3-diaminopropan-2-yl)-3-(2H-tetrazol-5-yl)benzene-1,2-disulfonamide] | 1.172 µM |  |  |  |
| Nc1nc(-c2cccc(-c3ccc(S(=O)(=O)N[C@H]4CCNC4)c(S(N)(=O)=O)c3-c3nn[nH]n3)c2)c[nH]1 [Example 294, (S)-3′-(2-amino-1H-imidazol-4-yl)-N4-(pyrrolidin-3-yl)-2-(2H-tetrazol-5-yl)-[1,1′-biphenyl]-3,4-disulfonamide] | 1.563 µM |  | 2.00 |  |
| NC[C@H](N)CNS(=O)(=O)c1ccc(-c2cccc3[nH]c(N)nc23)c(-c2nn[nH]n2)c1S(N)(=O)=O [Example 370, (S)-4-(2-amino-1H-benzo[d]imidazol-4-yl)-N1-(2,3-diaminopropyl)-3-(2H-tetrazol-5-yl)benzene-1,2-disulfonamide] | 1.563 µM |  | 1.00 |  |
| NCc1nc2c(-c3ccc(S(=O)(=O)NC(CN)CN)c(S(N)(=O)=O)c3-c3nn[nH]n3)cccc2[nH]1 [Example 385, 4-(2-(Aminomethyl)-1H-benzo[d]imidazol-4-yl)-N1-(1,3-diaminopropan-2-yl)-3-(2H-tetrazol-5-yl)benzene-1,2-disulfonamide] |  | 0.7813 µM | 1.00 | 0.7813 µM |
| NCCNS(=O)(=O)c1ccc(-c2ccnc(N)c2)c(-c2nn[nH]n2)c1S(N)(=O)=O [Example 400, N^1-(2-aminoethyl)-4-(2-aminopyridin-4-yl)-3-(2H-tetrazol-5-yl)benzene-1,2-disulfonamide] | 1.563 µM |  |  |  |
| Nc1ccc(-c2ccc(S(=O)(=O)NC[C@@H]3CCCN3)c(S(N)(=O)=O)c2-c2nn[nH]n2)cn1 [Example 488, (S)-4-(6-aminopyridin-3-yl)-N1-(pyrrolidin-2-ylmethyl)-3-(2H-tetrazol-5-yl)benzene-1,2-disulfonamide] | 1.563 µM |  |  |  |
| Nc1ncccc1-c1ccc(S(=O)(=O)NC[C@@H]2CNCCN2)c(S(N)(=O)=O)c1-c1nn[nH]n1 [Example 313, (S)-4-(2-aminopyridin-3-yl)-N1-(piperazin-2-ylmethyl)-3-(2H-tetrazol-5-yl)benzene-1,2-disulfonamide] | 3.125 µM |  | 2.00 |  |
| NC[C@H](O)CNS(=O)(=O)c1ccc(-c2cccc3[nH]c(N)nc23)c(-c2nn[nH]n2)c1S(N)(=O)=O [Example 304, (S)-4-(2-amino-1H-benzo[d]imidazol-4-yl)-N1-(3-amino-2-hydroxypropyl)-3-(2H-tetrazol-5-yl)-benzene-1,2-disulfonamide] |  | 0.7813 µM | 0.50 | 0.3906 µM |
| NCCNS(=O)(=O)c1ccc(-c2cccnc2N)c(-c2nn[nH]n2)c1S(N)(=O)=O [Example 358, N1-(2-aminoethyl)-4-(2-aminopyridin-3-yl)-3-(2H-tetrazol-5-yl)benzene-1,2-disulfonamide] | 1.563 µM |  | 2.00 |  |
| NC[C@H](N)CNS(=O)(=O)c1ccc(-c2cnc(N)s2)c(-c2nn[nH]n2)c1S(N)(=O)=O [Example 372, (S)-4-(2-aminothiazol-5-yl)-N1-(2,3-diaminopropyl)-3-(2H-tetrazol-5-yl)benzene-1,2-disulfonamide] |  | 1.563 µM | 2.00 | 1.563 µM |

From patent US10544130B2, “Metallo-beta-lactamase inhibitors” (priority 2015, dated 2020)
